Measured values taken from patent publication US10112933B2, “Methods and compositions for treatment of fibrosis” (Baylor College of Medicine, priority 2013, dated 2018).

Experiments:
[1] = target: recombinant Stat3 (binding to EGFR Y1068 phosphododecapeptide) (Homo sapiens, UniProt P40763); assay: Stat3 SH2/pY-peptide SPR binding inhibition assay; settings: Stat3 500 nM, immobilized EGFR Y1068 phosphododecapeptide; read-out: SPR IC50 (competition with pY-peptide for binding to Stat3)
Excerpt: Data shown are representative of 2 or more experiments. The equilibrium binding levels obtained in the absence or presence of compounds were normalized (response obtained in the presence of compound÷the response obtained in the absence of compound×100), plotted against the log concentration (nM) of the compounds (panel G). The experimental points fit to a competitive binding curve that uses a four-parameter logistic equation (see exemplary methods for details). These curves were used to calculate IC50 (Table 1).
Stat3 SH2/pY-peptide binding assay. Stat3 binding assays were performed at 25° C. with a BIAcore 3000 biosensor using 20 mM Tris buffer pH 8 containing 2 mM mercaptoethanol and 5% DMSO as the running buffer (Kim et al., 2005). Phosphorylated and control non-phosphorylated biotinylated EGFR derived dodecapeptides based on the sequence surrounding Y1068 (Shao et al., 2004) were immobilized on a streptavidin coated sensor chip (BIAcore inc., Picataway N.J.). The binding of Stat3 was conducted in 20 mM Tris buffer pH 8 containing 2 mM β-mercaptoethanol at a flow rate of 10 uL/min for 1-2 minute. Aliquots of Stat3 at 500 nM were premixed with compound to achieve a final concentration of 1-1,000 uM and incubated at 4° C. prior to being injected onto the sensor chip. The chip was regenerated by injecting 10 uL of 100 mM glycine at pH 1.5 after each sample injection. A control (Stat3 with DMSO but without compound) was run at the beginning and the end of each cycle (40 sample injections) to ensure that the integrity of the sensor chip was maintained throughout the cycle run. The average of the two controls was normalized to 100% and used to evaluate the effect of each compound on Stat3 binding. Responses were normalized by dividing the value at 2 min by the response obtained in the absence of compounds at 2 min and multiplying by 100. IC50 values were determined by plotting % maximum response as a function of log concentration of compound and fitting the experimental points to a competitive binding model using a four parameter logistic equation: R=Rhigh−(Rhigh−Rlow)/(1+conc/A1)^A2, where R=percent response at inhibitor concentration, Rhigh=percent response with no compound, Rlow=percent response at highest compound concentration, A2=fitting parameter (slope) and A1=IC50 (BIAevaluation Software version 4.1).
EXP IIA. Stat3/pY-peptide SPR binding inhibition assay. Stat3 pY-peptide binding assays is performed at 25° C. using a BIAcore 3000 biosensor as described (Xu et al., 2009). Briefly, phosphorylated and control nonphosphorylated biotinylated EGFR derived dodecapeptides based on the sequence surrounding Y1068 are immobilized on a streptavidin coated sensor chip (BIAcore Inc., Piscataway N.J.). […]

Stat3:hSIE complex = target: T1, Stat3:hSIE complex (Homo sapiens, UniProt P40763); assay: Electrophoretic mobility shift assay (Stat3 DNA binding, hSIE probe); assay type: biochemical; settings: extracts of IL-6-stimulated HepG2 cells, compound 300 μM
T1 construct: endogenous in cells; host or cells: HepG2
Procedure: Electrophoretic mobility shift assays were performed using whole-cell extracts prepared from HepG2 cells without and with stimulation with IL-6 (30 ng/ml) for 30 min. Protein (20 μg) was incubated with radiolabeled duplex oligonucleotide (hSIE) and DMSO without or with the indicated compounds (300 uM) for 60 minutes at 37° C. then separated by PAGE. The gel was dried and autoradiographed; the portion of the gel corresponding to the Stat3-bound hSIE band is shown. Data shown are representative of 2 studies.
Electrophoretic Mobility Shift Assay (EMSA): EMSA was performed using the hSIE radiolabeled duplex oligonucleotide as a probe as described (Tweardy et al., 1995). Briefly, high salt extracts were prepared from HepG2 cells incubated without or with IL-6 (30 ng/ml) for 30 minutes. Protein concentration was determined by Bradford Assay and 20 ug of extract was incubated with compound (300 uM) for 60 minutes at 37° C. […] Gels were dried and autoradiographed.
Once in the nucleus, Stat3 dimers bind to specific DNA elements to activate and, in some instances, repress gene transcription. […] Compounds that bind to the phosphopeptide-binding site of Stat3 might be expected to do the same. […]

[2] = system: breast cancer cell lines (MDA-MB-468, MDA-MB-231, MBA-MD-435, MCF7, MDA-MB-453); assay: Breast cancer cell line apoptosis assay (nucleosome ELISA); assay type: cell-based, human
Procedure: Breast cancer cell line apoptosis assay. Human breast carcinoma cell lines MDA-MB-468, MDA-MB-231, MBA-MD-435 and MCF7 were kindly provided by Dr. Powel H. Brown (Breast Cancer Center, Baylor College of Medicine). Breast cancer cell line, MDA-MB-453 was kindly provided by Dr. Shou Jiang (Breast Cancer Center, Baylor College of Medicine). All cell lines were grown in DMEM medium supplemented with 10% fetal bovine serum (FBS), 25,000 units penicillin G, 25,000 ug streptomycin, and 131.4 mg L-Glutamine and cultured in the incubator under the condition of 95% air, 5% CO2 at 37° C. (Garcia et al., 2001). Cells were seeded at 2,500 cells/cm^2 into 12-well plates. At 80% confluency, cells were washed with PBS and supplemented with fresh medium containing compound or the topoisomerase I-inhibitor, camptothecin, at 0, 0.1, 03, 1, 3, 10, 30, 100, 300 μM. At 24 hours, treatment was terminated by removing the medium from each well. Cells were lysed with cell lysis buffer ([…] for 30 minutes at 25° C.). Cell lysate (200 μl) was centrifuged at 200×g for 10 minutes and […] of each supernatant was assayed for nucleosomes using the Cell Death Detection ELISA (Roche Applied Science) as described by the manufacturer. The percent maximum nucleosome level was calculated by dividing the nucleosome level by the maximum nucleosome level achieved in the assay and multiplying by 100. This value was plotted as a function of the log compound concentration and the best-fitting curve generated using 4-Parameter Logistic Model/Dose Response/XLfit 4.2, IDBS software.

Sequence of recombinant Stat3 (binding to EGFR Y1068 phosphododecapeptide) (P40763 whole entry, species assumed): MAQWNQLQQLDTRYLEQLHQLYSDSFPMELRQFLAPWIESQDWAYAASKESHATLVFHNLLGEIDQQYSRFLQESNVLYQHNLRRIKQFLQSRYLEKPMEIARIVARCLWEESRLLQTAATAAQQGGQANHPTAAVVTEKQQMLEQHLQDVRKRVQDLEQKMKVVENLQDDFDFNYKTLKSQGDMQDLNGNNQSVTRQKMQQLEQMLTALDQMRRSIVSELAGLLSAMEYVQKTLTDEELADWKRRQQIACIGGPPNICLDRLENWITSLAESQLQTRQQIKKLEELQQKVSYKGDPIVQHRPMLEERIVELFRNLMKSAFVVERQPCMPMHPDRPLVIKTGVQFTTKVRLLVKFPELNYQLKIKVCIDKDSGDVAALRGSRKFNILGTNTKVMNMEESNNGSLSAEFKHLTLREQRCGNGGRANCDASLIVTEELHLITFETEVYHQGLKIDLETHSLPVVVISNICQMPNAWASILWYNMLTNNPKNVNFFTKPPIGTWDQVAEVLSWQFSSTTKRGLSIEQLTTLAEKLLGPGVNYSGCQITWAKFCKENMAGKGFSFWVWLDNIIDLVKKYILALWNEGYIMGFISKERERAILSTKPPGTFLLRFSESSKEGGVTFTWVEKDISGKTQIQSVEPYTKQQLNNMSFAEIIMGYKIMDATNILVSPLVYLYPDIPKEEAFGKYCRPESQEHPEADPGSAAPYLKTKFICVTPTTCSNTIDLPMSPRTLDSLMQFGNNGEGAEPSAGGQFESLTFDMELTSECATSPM
T1 sequence (P40763 2-770 limits assumed, one chain of several): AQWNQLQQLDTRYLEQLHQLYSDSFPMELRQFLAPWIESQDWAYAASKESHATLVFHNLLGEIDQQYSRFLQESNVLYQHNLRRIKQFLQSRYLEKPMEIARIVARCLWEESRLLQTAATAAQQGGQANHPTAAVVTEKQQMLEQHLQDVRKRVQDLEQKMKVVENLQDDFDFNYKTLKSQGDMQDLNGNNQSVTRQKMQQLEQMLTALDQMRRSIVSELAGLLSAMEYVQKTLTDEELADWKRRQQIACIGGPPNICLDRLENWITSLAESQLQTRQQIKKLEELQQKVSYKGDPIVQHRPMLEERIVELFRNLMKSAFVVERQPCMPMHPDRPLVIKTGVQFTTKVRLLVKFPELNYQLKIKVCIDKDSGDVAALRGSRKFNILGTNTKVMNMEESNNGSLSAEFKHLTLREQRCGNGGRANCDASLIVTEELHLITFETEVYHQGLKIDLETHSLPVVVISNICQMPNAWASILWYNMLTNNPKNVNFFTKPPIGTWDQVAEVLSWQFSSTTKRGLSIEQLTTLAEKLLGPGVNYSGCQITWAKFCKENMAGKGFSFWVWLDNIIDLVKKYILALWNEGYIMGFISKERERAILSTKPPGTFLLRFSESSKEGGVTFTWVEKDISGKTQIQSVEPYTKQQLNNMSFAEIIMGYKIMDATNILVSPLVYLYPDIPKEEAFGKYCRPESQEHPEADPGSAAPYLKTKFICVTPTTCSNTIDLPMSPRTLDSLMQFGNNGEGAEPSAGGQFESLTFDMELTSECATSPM

SMILES | IC50 [1] | amount of hSIE shifted (Stat3:hSIE band intensity) (Stat3:hSIE complex) | apoptosis of breast cancer cell lines with constitutive Stat3 activation [2]
CCOc1cc(C=C2C(=O)c3ccccc3C2=O)cc(Cl)c1OCc1cccc(C(=O)O)c1 [Cpd3-2, 3-({2-chloro-4-[(1,3-dioxo-1,3-dihydro-2H-inden-2-ylidene)methyl]-6-ethoxyphenoxy}methyl)benzoic acid] | 256 µM |  | 
O=C(O)c1ccc(C=CC(=O)c2ccc3c(c2)OCCO3)cc1 [Cpd3, 4-[3-(2,3-dihydro-1,4-benzodioxin-6-yl)-3-oxo-1-propen-1-yl]benzoic acid] | 447 µM | reduced the amount of hSIE shifted by half or greater | induced apoptosis preferentially
CCN1C(=O)C(=Cc2ccc(-c3cc(C(=O)O)ccc3Cl)o2)C(=O)N(CC)C1=S [Cpd30-12, 4-chloro-3-{5-[(1,3-diethyl-4,6-dioxo-2-thioxotetrahydro-5(2H)-pyrimidinylidene)methyl]-2-furyl}benzoic acid] | 114 µM |  | 
